Values joined by “and” are separate entries in the source; they are usually repeats but may differ in a detail not shown here. Equal values may be shown once.
Columns and labels:
Format in all cases: cell-based, human
[1] = tested on: non-senescent control IMR90 ER:RAS cells; experiment: Nuclei count (Hoechst, high content imaging) senolytic assay, OIS model, non-senescent control cells; settings: for Mean % Cell Survival: mean n=3 (Fig 3C)
In short: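 Compared non-senescent and senescent IMR90 ER:RAS cultures (senescence induced with 4-OHT at 100 nM final); cells seeded 24 h before dosing, then exposed 72 h to compounds, 10-point […] range 10 μM–10 nM, triplicate. Fixed, Hoechst-stained, nuclei counted by high-content imaging; drop versus untreated reflects cell death.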

[2] = tested on: senescent A549 cells (etoposide-induced); experiment: Nuclei count senolytic assay, therapy-induced senescence (TIS) model, senescent cells; settings: Senescent cells, mean
In short: (§1)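 A549 cells made senescent with 100 μM etoposide for 48 h then 3 days in normal media; non-senescent A549 as control. Cells were exposed for 72 h to a 10-point […] range (10 μM–10 nM) in triplicate, then fixed, Hoechst-stained and imaged for nuclei count.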

[3] = tested on: non-senescent control A549 cells; experiment: Nuclei count senolytic assay, TIS model, non-senescent control cells; settings: Control cells, mean
In short: as §1

## CC(C)=CCc1c(O)cc2oc3cc(O)c(O)c(CC=C(C)C)c3c(=O)c2c1O [Gamma mangostin, gamma mangostin]
[1]; Control cells, log (dose) [M] -5, individual replicates, SUP FIG 4C
  % Cell Survival: 83.3507% and 108.05% and 79.5367% and 95.8097%
[1]; Control cells, log (dose) [M] -5.33, individual replicates, SUP FIG 4C
  % Cell Survival: 87.0968% and 96.0317% and 81.9498% and 89.128%
[1]; Control cells, log (dose) [M] -5.66, individual replicates, SUP FIG 4C
  % Cell Survival: 85.64% and 147.846% and 85.3282% and 103.058%
[1]; Control cells, log (dose) [M] -6, individual replicates, SUP FIG 4C
  % Cell Survival: 61.4984% and 93.424% and 84.0734% and 96.1495%
[1]; Control cells, log (dose) [M] -6.33, individual replicates, SUP FIG 4C
  % Cell Survival: 89.5942% and 95.6916% and 116.216% and 74.9717%
[1]; Control cells, log (dose) [M] -6.66, individual replicates, SUP FIG 4C
  % Cell Survival: 89.282% and 97.3923% and 91.7954% and 95.8097%
[1]; Control cells, log (dose) [M] -7, individual replicates, SUP FIG 4C
  % Cell Survival: 92.924% and 97.5057% and 90.1544% and 99.6602%
[1]; Control cells, log (dose) [M] -7.33, individual replicates, SUP FIG 4C
  % Cell Survival: 93.7565% and 97.2789% and 93.4363% and 109.513%
[1]; Control cells, log (dose) [M] -7.66, individual replicates, SUP FIG 4C
  % Cell Survival: 96.9823% and 99.8866% and 98.9382% and 108.494%
[1]; Control cells, log (dose) [M] -8, individual replicates, SUP FIG 4C
  % Cell Survival: 107.7% and 97.0522% and 93.3398% and 109.173%
[1]; Control, log (dose) [M] -5, 72 h
  Mean % Cell Survival: 91.6867%
[1]; Control, log (dose) [M] -5.33, 72 h
  Mean % Cell Survival: 88.5516%
[1]; Control, log (dose) [M] -5.66, 72 h
  Mean % Cell Survival: 105.468%
[1]; Control, log (dose) [M] -6, 72 h
  Mean % Cell Survival: 83.7863%
[1]; Control, log (dose) [M] -6.33, 72 h
  Mean % Cell Survival: 94.1184%
[1]; Control, log (dose) [M] -6.66, 72 h
  Mean % Cell Survival: 93.5698%
[1]; Control, log (dose) [M] -7, 72 h
  Mean % Cell Survival: 95.0611%
[1]; Control, log (dose) [M] -7.33, 72 h
  Mean % Cell Survival: 98.4962%
[1]; Control, log (dose) [M] -7.66, 72 h
  Mean % Cell Survival: 101.075%
[1]; Control, log (dose) [M] -8, 72 h
  Mean % Cell Survival: 101.816%
[1]; Control, log (dose) [M] -5
  % Cell Survival: 92.5926% and 96.693% and 91.9267%
[1]; Control, log (dose) [M] -5.33
  % Cell Survival: 94.2308% and 86.4127% and 82.768%
[1]; Control, log (dose) [M] -5.66
  % Cell Survival: 90.6695% and 83.6808% and 81.9539%
[1]; Control, log (dose) [M] -6
  % Cell Survival: 85.6125% and 87.1316% and 81.6147%
[1]; Control, log (dose) [M] -6.33
  % Cell Survival: 95.7977% and 84.3997% and 85.8209%
[1]; Control, log (dose) [M] -6.66
  % Cell Survival: 91.7379% and 85.9813% and 84.5319%
[1]; Control, log (dose) [M] -7
  % Cell Survival: 95.6553% and 92.739% and 90.502%
[1]; Control, log (dose) [M] -7.33
  % Cell Survival: 96.8661% and 91.0137% and 90.4342%
[1]; Control, log (dose) [M] -7.66
  % Cell Survival: 96.7236% and 96.7649% and 94.3691%
[1]; Control, log (dose) [M] -8
  % Cell Survival: 100.783% and 103.882% and 95.7938%
[2]; log (dose) [M] -5
  Mean % Cell Survival: 104.426%
[2]; log (dose) [M] -5.33
  Mean % Cell Survival: 105.938%
[2]; log (dose) [M] -5.66
  Mean % Cell Survival: 108.604%
[2]; log (dose) [M] -6
  Mean % Cell Survival: 101.088%
[2]; log (dose) [M] -6.33
  Mean % Cell Survival: 110.065%
[2]; log (dose) [M] -6.66
  Mean % Cell Survival: 106.259%
[2]; log (dose) [M] -7
  Mean % Cell Survival: 114.559%
[2]; log (dose) [M] -7.33
  Mean % Cell Survival: 114.138%
[2]; log (dose) [M] -7.66
  Mean % Cell Survival: 105.957%
[2]; log (dose) [M] -8
  Mean % Cell Survival: 105.108%
[3]; log (dose) [M] -5
  Mean % Cell Survival: 93.7374%
[3]; log (dose) [M] -5.33
  Mean % Cell Survival: 87.8038%
[3]; log (dose) [M] -5.66
  Mean % Cell Survival: 85.4347%
[3]; log (dose) [M] -6
  Mean % Cell Survival: 84.7862%
[3]; log (dose) [M] -6.33
  Mean % Cell Survival: 88.6728%
[3]; log (dose) [M] -6.66
  Mean % Cell Survival: 87.417%
[3]; log (dose) [M] -7
  Mean % Cell Survival: 92.9654%
[3]; log (dose) [M] -7.33
  Mean % Cell Survival: 92.7713%
[3]; log (dose) [M] -7.66
  Mean % Cell Survival: 95.9525%
[3]; log (dose) [M] -8
  Mean % Cell Survival: 100.153%
